Patent US8431402B2, “Method of high frequency regeneration of Sorghum” (Temasek Life Sciences Laboratory Limited, priority 2008, dated 2013)

Test system: dissected embryonated cotyledon (DEC) explants of sweet sorghum hybrid varieties Liotian 1, Lioza 7050A and Liao Ji Za 1
Test: Regeneration of sorghum via organogenesis from dissected embryonated cotyledon (DEC) explants on stage 1-6 media
Type: cell-based, Sorghum bicolor (L.) Moench
Settings: for phenolic exudates from the base of the shoot buds: added to stage 2 medium
Method: Seeds of sweet sorghum (Sorghum bicolor (L.) Moench) hybrid varieties Liotian 1, Lioza 7050A and Liao Ji Za 1 were obtained from Chinese National Center for Sorghum Improvement, Shenyang City, 110161, Liaoning Province, P.R. China. The viable seeds were washed in chlorohexidine surgical wash (two drops in 100 ml of sterile water) for five minutes and soaked in sterile water for two days at 4° C. in refrigerator. Later these imbibed seeds were further surface sterilized in 10% clorox solution (commercial bleach) for 10 minutes followed by washes with sterile water for five times. To ensure complete sterility, these seeds were rinsed again with 70% alcohol for 90 seconds and subsequently washed with sterile water three times before used as explants.
The radical tissues were completely removed from the dissected embryonated cotyledon (DEC) explants. After six weeks of culture, the SCPC from stage 1 medium were further injured and transferred to stage 2 medium (Table 1) and stage 3 medium (Table 1) at five and ten-day interval for shoot bud induction. Subsequently, the shoot buds developed on stage 3 medium were split into 8-10 clumps with each clumps containing three to five shoots and transferred to stage 4 medium (Table 1) for further shoot induction followed by stage 5 medium (Table 1) for shoot elongation at two-week intervals respectively. The elongated shoot clumps with 2-3 shoots (4 cm height) from stage 5 medium were transferred to stage 6 medium (Table 1) for root induction. The well developed and rooted plantlets were transferred for hardening after two weeks of culture.
The pH of the medium was adjusted to 5.8 with 1N NaOH or 1N HCl prior to the addition of 0.8% phytoagar (stages 1-5 media) or 0.25% phytogel (stage 6 medium) and sterilized by autoclaving at 121° C. for 20 minutes. Approximately 20 ml of sterilized medium was dispensed into sterilized Petri dish (90×15 mm size, plastic polycarbonate, Canada). The chemicals used for media preparations were of analytical grade (Duchefa Biochemie, Haarlem, The Netherlands and Sigma Aldrich, Inc., St Louis, USA). All the cultures were maintained at 25° C. 2° C. under white fluorescent tube lights, 16/8 h (light/dark) photoperiod period, light intensity of 25 μE m^−2s^−1 and with 55-60% relative humidity. The cultures were subcultured at two-week intervals during stage 1, five-day intervals in stages 2 and 3, followed by one-week intervals in stages 4 and 5, with no subculturing in stage 6.

Row | Compound | germination of embryos attached to the cotyledons (present in stage 1 medium) | phenolic exudates from the base of the shoot buds | other results
1 | O=C(O)[C@@H]1CCCN1 [proline, L-proline] | inhibited germination of embryos |  | 
2 | O=C(O)Cc1c[nH]c2ccccc12 [IAA, indole 3-acetic acid] |  |  | root induction (in stage 6 medium, 5.7 μM): induced roots within one week
3 | NC(=O)CC[C@H](N)C(=O)O [L-glutamine] | inhibited germination of embryos |  | 
4 | NCC(=O)O [L-glycine] |  | prevented these phenolic exudates | 
5 | CC1=CC(=O)CC(C)(C)[C@@]1(O)/C=C/C(C)=C\C(=O)O [ABA, abscisic acid] | inhibited germination of embryos |  | 
6 | O=C1O[C@H]([C@@H](O)CO)C(O)=C1O [Asc, ascorbic acid] |  | prevented these phenolic exudates | 
7 | O=[N+]([O-])[O-].[Ag+] [AgNO3] |  | prevented these phenolic exudates | 
8 | O=C(O)COc1ccc(Cl)cc1Cl [2,4-D, 2,4-dichlorophenoxy acetic acid] |  |  | callus formation (present in stage 1 medium, 6.78 μM): induced callus formation
